By IC50 is commonly meant the concentration needed to halve the response being measured. A higher IC50 goes with lower potency.

The assay has as its target T1, human plasma protein factor Xa (Homo sapiens, UniProt P00742).
T1 construct: measure proteolytic activity of the enzyme (factor Xa); purchased Haematologic Technologies (Essex Junction, Vt.); host or cells: human plasma
As to the kind of experiment: Factor Xa IC50 determination (cleavage of chromogenic substrate S-2765). It is filed as biochemical. To be noted: fXa 1 nM, S-2765 100 μM, Tris buffered saline pH 7.4, room temperature. The procedure, abridged: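 Human plasma factor Xa (1 nM) preincubated 5 min at room temperature with inhibitor (0.01 nM–10 μM final) in Tris-buffered saline pH 7.4 with CaCl2, BSA and 5% DMSO. S-2765 added at 100 μM; pNA release at 405 nm over 2 min; initial velocities fitted to four-parameter equation for IC50, duplicates.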

T1 sequence (P00742 235-488 limits assumed): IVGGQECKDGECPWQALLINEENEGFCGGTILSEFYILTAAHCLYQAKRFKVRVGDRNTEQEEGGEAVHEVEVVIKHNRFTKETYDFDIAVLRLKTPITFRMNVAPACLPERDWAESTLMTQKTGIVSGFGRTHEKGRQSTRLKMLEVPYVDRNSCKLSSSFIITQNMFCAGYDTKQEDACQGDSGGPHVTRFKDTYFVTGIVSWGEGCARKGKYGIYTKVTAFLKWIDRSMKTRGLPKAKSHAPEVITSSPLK
T1 sequence (P00742 41-179 partner limits assumed): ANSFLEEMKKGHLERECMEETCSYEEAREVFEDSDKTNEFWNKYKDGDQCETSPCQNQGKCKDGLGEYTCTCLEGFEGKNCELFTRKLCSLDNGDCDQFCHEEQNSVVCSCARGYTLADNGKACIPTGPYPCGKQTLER

In turn, `COc1ccccc1C(NC(=O)Nc1ccc(Cl)cc1)C(=O)Nc1ccc(C(=N)N(C)C)cc1` (centres unmarked) [Example 112, N-[4-(dimethylaminoimino)phenyl]-2-(2-methoxyphenyl)-2-(4-chlorophenylaminocarbonylamino)-acetamide] returned an IC50 not above 100 nM. For `CN1CCN=C1c1ccc(NC(=O)C(NC(=O)Nc2ccc(Cl)cc2)c2ccccc2Br)cc1` (centres unmarked) [Example 77, N-[4-(1-methyl-4,5-dihydro-1H-imidazol-2-yl)phenyl]-2-(2-bromophenyl)-2-(4-chlorophenylaminocarbonylamino)-acetamide], the IC50 is not above 100 nM. In the case of `CN1CCN=C1c1ccc(N2C(=O)CC(NC(=O)Nc3ccc(Cl)cc3)C2=O)cc1` (centres unmarked) [Example 72, N-[4-(1-methyl-4,5-dihydro-1H-imidazol-2-yl)phenyl]-3-(4-chlorophenylaminocarbonylamino)-succinimide] it was 100 to 500 nM. Next, `CSc1ccccc1C(NC(=O)Nc1ccc(Cl)cc1)C(=O)Nc1ccc(-c2cccc[n+]2[O-])cc1` (centres unmarked) [Example 126, N-[4-(N-oxo-pyridin-2-yl)phenyl]-2-(2-methylthiophenyl)-2-(4-chlorophenylaminocarbonylamino)-acetamide]: not above 100 nM. In the case of `O=C(Nc1ccc(Cl)cc1)NC(C(=O)N1CCC(N2CCOCC2=O)CC1)c1ccccc1Br` (centres unmarked) [Example 146, 4-(3-morpholinon-4-yl)piperidin-1-yl-2-(2-bromophenyl)-2-(4-chlorophenylaminocarbonylamino)-acetamide], the IC50 was in the range of 100 to 500 nM.

`N=C(c1ccc(NC(=O)C(NC(=O)Nc2ccc(Cl)cc2)c2ccccc2)c(F)c1)N1CCCC1` (centres unmarked) [Example 38, N-[4-(pyrrolidin-1-ylimino)-2-fluorophenyl]-2-phenyl-2-(4-chlorophenylaminocarbonylamino)-acetamide] yielded an IC50 not above 100 nM. For the molecule `CN(C)Cc1ccccc1-c1ccc(NC(=O)C(NC(=O)Nc2ccc(Cl)cc2)c2ccccc2F)c(F)c1` (centres unmarked) [Example 56, N-[4-(2-dimethylaminomethyl-phenyl)-2-fluorophenyl]-2-(2-fluorophenyl)-2-(4-chlorophenylaminocarbonylamino)-acetamide], the 50% inhibitory concentration (IC50) was not above 100 nM. As for `CN1CCN=C1c1ccc(NC(=O)C(NC(=O)Nc2ccc(Br)cc2)c2cccs2)cc1` (centres unmarked) [Example 30, N-[4-(1-methyl-4,5-dihydro-1H-imidazol-2-yl)phenyl]-2-(2-thienyl)-2-(4-bromophenylaminocarbonylamino)-acetamide], the half-maximal inhibitory concentration (IC50) was not above 100 nM. Molecule `CN(C)C(=N)c1ccc(NC(=O)C(NC(=O)Nc2ccc(Cl)cc2)c2ccccc2I)cc1` (centres unmarked) [Example 116, N-[4-(dimethylaminoimino)phenyl]-2-(2-iodophenyl)-2-(4-chlorophenylaminocarbonylamino)-acetamide] came in with an IC50 not above 100 nM. Regarding `O=C(Nc1ccc(Cl)cc1)NC(C(=O)Nc1ccc(-c2cc[n+]([O-])cc2)cc1)c1ccccc1F` (centres unmarked) [Example 50, N-[4-(N-oxo-pyridin-4-yl)phenyl]-2-(2-fluorophenyl)-2-(4-chlorophenylaminocarbonylamino)-acetamide], the IC50 was 100 to 500 nM. For `O=C(Nc1ccc(Cl)cc1)NC(C(=O)Nc1ccc(-c2cccc[n+]2[O-])cc1)c1ccccc1Cl` (centres unmarked) [Example 99, N-[4-(N-oxo-pyridin-2-yl)phenyl]-2-(2-chlorophenyl)-2-(4-chlorophenylaminocarbonylamino)-acetamide], the IC50 is not above 100 nM. `O=C(Nc1ccc(Cl)cc1)NC(C(=O)Nc1ccc(-c2cccc[n+]2[O-])cc1)c1ccccc1SC(F)(F)F` (centres unmarked) [Example 123, N-[4-(N-oxo-pyridin-2-yl)phenyl]-2-(2-trifluoromethylthiophenyl)-2-(4-chlorophenylaminocarbonylamino)-acetamide] showed an IC50 not above 100 nM. `CN(C)Cc1ccccc1-c1ccc(NC(=O)C(NC(=O)Nc2ccc(Cl)cc2)c2ccccc2F)cc1` (centres unmarked) [Example 55, N-[4-(2-dimethylaminomethyl-phenyl)phenyl]-2-(2-fluorophenyl)-2-(4-chlorophenylaminocarbonylamino)-acetamide] came in with an IC50 not above 100 nM. `Cc1ccccc1C(NC(=O)Nc1ccc(Cl)cc1)C(=O)NCC1CCN(c2ccncc2)CC1` (centres unmarked) [Example 93, N-[1-(pyridin-4-yl)piperidin-4-yl]methyl-2-(2-methylphenyl)-2-(4-chlorophenylaminocarbonylamino)-acetamide]: the IC50 was not above 100 nM. With `CCN(C)C(=N)c1ccc(NC(=O)C(NC(=O)Nc2ccc(Cl)cc2)c2cccs2)cc1` (centres unmarked) [Example 20, N-[4-(N-methyl-N-ethylaminoimino)phenyl]-2-(2-thienyl)-2-(4-chlorophenylaminocarbonylamino)-acetamide], the IC50 was not above 100 nM.

In turn, `CN1CCC(N2CCN(C(=O)C(NC(=O)Nc3ccc(Cl)cc3)c3ccccc3)CC2)CC1` (centres unmarked) [Example 128] yielded a half-inhibitory concentration (IC50) not above 100 nM.

Take `N=C(c1ccc(NC(=O)C(NC(=O)Nc2ccc(Cl)cc2)c2ccccc2)cc1)N1CCC1` (centres unmarked) [Example 28]: the IC50 was not above 100 nM. On to `CN1CCN=C1c1ccc(NC(=O)C(Cc2c[nH]c3ccccc23)NC(=O)Nc2ccc(Cl)cc2)cc1` (centres unmarked) [Example 6, N-[4-(1-methyl-4,5-dihydro-1H-imidazol-2-yl)phenyl]-2-indol-3-ylmethyl-2-(4-chlorophenylaminocarbonylamino)-acetamide], for which the IC50 is not above 100 nM.

Take `O=C(Nc1ccc(Cl)cc1)NC(C(=O)Nc1ccc(-c2cccc[n+]2[O-])cc1)c1ccccc1I` (centres unmarked) [Example 115, N-[4-(N-oxo-pyridin-2-yl)phenyl]-2-(2-iodophenyl)-2-(4-chlorophenylamino-carbonylamino)-acetamide]: the IC50 is not above 100 nM. In turn, `COc1ccccc1C(NC(=O)Nc1ccc(Cl)cc1)C(=O)N1CCN(C2CCCNCC2)CC1` (centres unmarked) [Example 152, 4-(homopiperidin-4-yl)piperazin-1-yl-2-(2-methoxyphenyl)-2-(4-chlorophenylaminocarbonylamino)-acetamide] gave an IC50 not above 100 nM.

(Values after patent publication US7678913B2, “Ureas as factor Xa inhibitors” (Portola Pharmaceuticals, Inc., priority 2004, dated 2010).)
